The values below are quoted from earlier work in patent publication US7223553B2, “Immunoassays for everolimus” (priority 2004, dated 2007).

The conditions of data set [1]: heart transplant patients, first year post-transplant.
The conditions of data set [2]: kidney transplantation; consistent with efficacy while minimizing adverse effects.

Like-named read-outs stand apart in the source and are kept apart here.

For the substance “40-O-(2-hydroxyethyl)-rapamycin [Everolimus]”, the Everolimus trough levels was 5.2 ± 3.8 ng/mL in data set [1] (1.5 mg/day) and 9.4 ± 6.3 ng/mL in data set [1] (3 mg/day). Also, the Therapeutic concentration in data set [2] was 3 to 15 ng/mL.
